Test results: PMC8362065, “Easily Available, Amphiphilic Diiron Cyclopentadienyl Complexes Exhibit in Vitro Anticancer Activity in 2D and 3D Human Cancer Cells through Redox Modulation Triggered by CO Release” (Chemistry (Weinheim an Der Bergstrasse, Germany), 2021)

Legend:
[1] = system: 3D cell spheroids of human pancreatic (PSN‐1) cancer cells; assay: Acid phosphatase (APH) assay, 3D spheroid culture; format: cell-based; settings: PSN‐1 spheroids, 72 h, APH test
Excerpt: (§1) The remarkable cell‐killing effect observed in 2D cultured cells prompted us to evaluate the in vitro antitumor activity of the complexes on 3D cell cultures. Differently from 2D monolayer culture, 3D spheroid cell culture systems comprise cancer cells in various cell growth stages. Consequently, the multicellular cancer spheroid model is recognized to better reflect the tumour mass in vivo regarding drug permeation, cell interactions, gene expression, hypoxia and nutrient gradients with respect to monolayer cell cultures, making 3D models more predictive than conventional 2D monolayer cultures in screening antitumor drugs.[38] Table 6 summarizes the IC50 values obtained after treatment of 3D cell spheroids of human ovarian (2008) and pancreatic (PSN‐1) cancer cells with the diiron complexes and cisplatin.
(§2) Spheroid cultures. Spheroid cultures were obtained by seeding 2.5×10^3 cells/well in round bottom non‐tissue culture treated 96 well‐plate (Greiner Bio‐one, Kremsmünster, Austria) in phenol red free RPMI‐1640 medium (Sigma Chemical Co.), containing 10 % FCS and supplemented with 20 % methyl cellulose stock solution.
(§3) Acid phosphatase (APH) assay. An APH modified assay was used for determining cell viability in 3D spheroids, as previously described.[58] IC50 values were calculated with a four‐parameter logistic (4‐PL) model. All the values are the means ± SD of not less than four independent experiments.

[2] = system: 3D cell spheroids of human ovarian (2008) cancer cells; assay: Acid phosphatase (APH) assay, 3D spheroid culture; format: cell-based; settings: 2008 spheroids, 72 h, APH test
Excerpt: as §1, §2, §3

[3] = system: Embryonic kidney HEK293 cells; assay: MTT assay, noncancerous cell line; format: cell-based, human; settings: 72 h; for IC50: HEK293 noncancerous cells, MTT; for SI (selectivity index): IC50 in noncancerous HEK293 cells / average IC50 in cancer cells
Method: As one of the main drawbacks of chemotherapeutics is the toxic effect toward noncancerous cells, we measured the cytotoxicity of tested complexes against a noncancerous cell line (HEK293) and calculated the selectivity index (SI, defined as the ratio between the IC50 value in noncancerous cells and the corresponding average IC50 value related to cancer cells; Table 5).
Compounds [2B]BF4, [2C]CF3SO3, [2D]CF3SO3 and [3F]CF3SO3 were dissolved in water while the other compounds were dissolved in the minimum DMSO amount prior to cell culture testing. A calculated amount of the stock drug DMSO solution was added to the cell culture media to reach a final maximum DMSO concentration of 0.5 %, which had no effects on cell viability.
Cell cultures. Human colon (HCT‐15), pancreatic (PSN‐1) and breast (MCF‐7) carcinoma cell lines along with human melanoma cells (A375) were obtained from American Type Culture Collection (ATCC, Rockville, MD). Embryonic kidney HEK293 cells were obtained from the European Collection of Cell Cultures (ECACC, Salisbury, UK). Human ovarian 2008 cancer cells were kindly provided by Prof. G. Marverti (Dept. of Biomedical Science of Modena University, Italy). MCF‐7 ADR cells were kindly provided by Prof. N. Colabufo (Dept. Pharmacy, University of Bari, Italy). Cell lines were maintained in the logarithmic phase at 37 °C in a 5 % CO2 atmosphere using the following culture media containing 10 % fetal calf serum (Euroclone, Milan, Italy), antibiotics (50 units/mL penicillin and 50 μg/mL streptomycin) and 2 mM L‐glutamine: i) RPMI‐1640 medium (Euroclone, Milan, Italy) for PSN‐1, 2008, HCT‐15, MCF‐7 and MCF‐7 ADR cells; ii) DMEM for A375 and HEK293 cells.
MTT assay. The growth inhibitory effect towards tumour cells was evaluated by means of MTT assay as previously described.[57] Briefly, 3–8×10^3 cells/well, dependent upon the growth characteristics of the cell line, were seeded in 96‐well microplates in growth medium (100 μL). After 24 h, the medium was removed and replaced with a fresh one containing the compound to be studied at the appropriate concentration. Triplicate cultures were established for each treatment. After 24 or 72 h, each well was treated with 10 μL of a 5 mg/mL MTT saline solution, and following 5 h of incubation, 100 μL of a sodium dodecyl sulfate (SDS) solution in HCl 0.01 M were added. After an overnight incubation, cell growth inhibition was detected by measuring the absorbance of each well at 570 nm using a Bio‐Rad 680 microplate reader. Mean absorbance for each drug dose was expressed as a percentage of the control untreated well absorbance and plotted against drug concentration. IC50 values, the drug concentrations that reduce the mean absorbance at 570 nm to 50 % of those in the untreated control wells, were calculated by the four‐parameter logistic (4‐PL) model. Evaluation was based on means from at least four independent experiments.

[4] = Stability in D2O, D2O/CD3OD and DMSO-d6/D2O at 37 °C by 1H NMR; format: physicochemical
Method: A detailed study on the behaviour of a selection of the diiron complexes in aqueous media was undertaken. Experimental procedures are provided in the Experimental Section and in the Supporting Information, with data collected in Tables 3, S3 and S4. […] The octanol/water partition coefficients (log P ow) were measured by a UV/Vis method and fall in between 0 and −1, reflecting an amphiphilic or slightly hydrophilic character. […] Conversely, those complexes with aromatic groups (i. e., 1H‐indol‐6‐yl, 2‐naphthyl and bis‐benzyl in [2A]^+, [3G]^+, [4G]^+ and [5H]^+) are less soluble in water and display increased affinity for n‐octanol (log P ow≈0). The diiron compounds are inert in aqueous solution at room temperature, and undergo a slow degradation at 37 °C. Under such conditions, a variable amount (50 to 86 %; Table S3) of the starting material was detected by ^1H NMR in D2O or D2O/CD3OD mixtures after 72 h.[33] During this time, the precipitation of a brown solid was observed, which in one case (from a [2C]CF3SO3 solution) was separated and identified as γ‐Fe2O3 by Raman analysis. In addition, headspace GC analyses performed on 5 % MeOH aqueous solutions of the compounds maintained at 37 °C allowed the identification and quantitation of the carbon monoxide released over a 48 h period (Table S4). These facts indicate that the thermal degradation process in aqueous solution leads to the progressive disassembly of the organometallic scaffold.[16] The presumed, controlled release of the iron centres (converted to iron oxide, see above) and carbon monoxide are two aspects that deserve attention with reference to the biological activity: note that the decay of ferrocene drug candidates into Fe^II ions was previously associated to their cytotoxicity,[34] while the activity of various iron carbonyl complexes was correlated to CO dissociation in the physiological media.[35]
Stability in water (D2O) and cell culture medium. The procedures are described in the Supporting Information, and data are collected in Table S3.
Table S3. Stability of diiron complexes in D2O, D2O/CD3OD, DMSO-d6/D2O and cell culture medium (DMEM-
d/CD3OD) solution at 37 °C calculated by 1H NMR (Me2SO2 internal standard).
% starting material (72 h) % starting material
Compound D O D O/CD OD DMSO-d /D O DMEM-d
[a] X = I for the stability in D 2O, X = CF3SO3 for the stability in cell culture medium. [b] Stability in D 2O and […]

IC50 [1] [µM]	IC50 [2] [µM]	% starting material (72 h) ([4]; D2O/CD3OD 2:1 v/v) [%]	IC50±SD (μM) [1]	IC50±SD (μM) [2]	% starting material (72 h) ([4]; D2O/CD3OD 5:4 v/v) [%]	% starting material (72 h) ([4]; DMSO-d6/D2O 1:1 v/v) [%]	% starting material (72 h) ([4]; DMSO-d6/D2O 5:3 v/v) [%]	Substance	IC50 [3] [µM]	% starting material (72 h) ([4]; D2O)	SI (selectivity index) [3]
> 100	> 100	81	–	–	–	–	–	[Fe2Cp2(CO)2(μ‐CO){μ‐CNMe(CH2PO3Et2)}]X [[2B]BF4]	> 100	85%	–
> 100	> 100	–	ineffective	ineffective	–	–	–	[Fe2Cp2(CO)2(μ‐CO){μ‐CNMe(CH2CHCH2)}]X [[3F]CF3SO3]	> 100	–	–
86.2 ± 6.4	73.2 ± 6.2	–	–	–	65	89	–	[Fe2Cp2(CO)2(μ‐CO){μ‐CNBn2}]X [[5H]CF3SO3]	98.3 ± 4.2	ca. 50%	2.8
77.4 ± 8.4	58.9 ± 4.8	–	–	–	51	–	42	[Fe2Cp2(CO)2(μ‐CO){μ‐CNEt(2‐naphthyl)}]BF4 [[4G]BF4]	89.5 ± 4.5	–	3.3
> 100	> 100	55	–	–	–	89	–	[Fe2Cp2(CO)2(μ‐CO){μ‐CNMe(1H‐indol‐6‐yl)}]CF3SO3 [[2A]CF3SO3]	136 ± 6.4	–	2.3

Substance	IC50 [1] [µM]	IC50 [2] [µM]	% starting material (72 h) ([4]; D2O/CD3OD 2:1 v/v) [%]	IC50±SD (μM) [1]	IC50±SD (μM) [2]	% starting material (72 h) ([4]; D2O/CD3OD 5:4 v/v) [%]	% starting material (72 h) ([4]; DMSO-d6/D2O 1:1 v/v) [%]	% starting material (72 h) ([4]; DMSO-d6/D2O 5:3 v/v) [%]	IC50 [3] [µM]	% starting material (72 h) ([4]; D2O)	SI (selectivity index) [3]
[Fe2Cp2(CO)2(μ‐CO){μ‐CNMe(C6H11)}]X [[2C]CF3SO3]	78.2 ± 9.1	66.4 ± 8.6	–	–	–	–	–	–	62.5 ± 4.9	75%	3.6
[Fe2Cp2(CO)2(μ‐CO){μ‐CNMe(4‐C6H4OMe)}]CF3SO3 [[2D]CF3SO3]	53.7 ± 6.1	42.8 ± 4.2	–	–	–	–	–	–	94.3 ± 6.1	86%	5.6
